Measured values taken from ChEMBL document CHEMBL1134822, “Trifluoromethyl-containing 3-alkoxymethyl- and 3-aryloxymethyl-2-pyridinones are potent inhibitors of HIV-1 non-nucleoside reverse transcriptase” (Bioorg Med Chem Lett, 2001).

Legend:
[1] = target: Human immunodeficiency virus type 1 reverse transcriptase (Human immunodeficiency virus 1, UniProt Q72547); assay: Inhibition of the NNRTI HIV-1 enzyme by 50% using enzyme assay.
[2] = tested on: Human immunodeficiency virus 1; assay: Antiviral activity against HIV-1 in MT-2 (human leukemia) cells in vitro.; format: functional
[3] = tested on: HIV-1 reverse transcriptase (Human immunodeficiency virus 1); assay: Compound was evaluated for its ability to inhibit the mutant K103N NNRTI HIV-1 enzyme
[4] = tested on: HIV-1 reverse transcriptase (Human immunodeficiency virus 1); assay: Compound was evaluated for its ability to inhibit the mutant K103N V1081NNRTI HIV-1 enzyme
[5] = tested on: HIV-1 reverse transcriptase (Human immunodeficiency virus 1); assay: Compound was evaluated for its ability to inhibit the NNRTI HIV-1 enzyme by 90% using whole cell assay
[6] = tested on: Human immunodeficiency virus type 1 reverse transcriptase (Human immunodeficiency virus 1), Q72547 [K103N,P225H]
[7] = tested on: HIV-1 reverse transcriptase (Human immunodeficiency virus 1); assay: Compound was evaluated for its ability to inhibit the mutant K103N L1001 NNRTI HIV-1 enzyme

For `Oc1ncccc1C(C#Cc1ccccc1)(OCc1ccccc1)C(F)(F)F` (stereo not given), the IC50 [1] was 11700 nM and the IC90 [2] was greater than 1300 nM.
With `CCc1cc(C(C#CC2CC2)(OCc2c(F)cccc2Cl)C(F)(F)F)c(O)nc1C` (stereo not given) the IC50 [1] was 6090 nM and the IC90 [2] was 61 nM.
Compound `O=C1Nc2ccc(Cl)cc2[C@@](C#CC2CC2)(C(F)(F)F)N1` has an IC90 [3] of 10 nM, an IC90 [4] of 38 nM and an IC90 [5] of 2 nM. It also gave an IC90 [6] of 73 nM.
Compound `CCc1cc(C(C#CC2CC2)(OCc2cc(OC)cc(OC)c2)C(F)(F)F)c(O)nc1C` (stereo not given) has an IC50 [1] of 3840 nM and an IC90 [2] of 579 nM.
`CCCCOC(C#CC1CC1)(c1cc(CC)c(C)nc1O)C(F)(F)F` (stereo not given) gave an IC50 [1] of 129 nM and an IC90 [2] of 42 nM.
For `Oc1nc2ccccc2cc1C(C#CC1CC1)(OCc1ccccc1)C(F)(F)F` (stereo not given), the IC50 [1] was 36000 nM and the IC90 [2] was 579 nM.
Compound `CCc1cc(C(C#CC2CC2)(OCc2ccc(Cl)cc2Cl)C(F)(F)F)c(O)nc1C` (stereo not given) has an IC50 [1] of 2700 nM and an IC90 [2] of 190 nM.
`Oc1ncccc1C(C#CC1CC1)(OCc1cccnc1)C(F)(F)F` (stereo not given) gave an IC50 [1] of 25600 nM and an IC90 [2] greater than 1440 nM.
`CCc1cc(C(C#CC2CC2)(OCc2c(F)cccc2F)C(F)(F)F)c(O)nc1C` (stereo not given) gave an IC50 [1] of 613 nM and an IC90 [2] of 49 nM.
In the case of `CCc1cc(C(C#CC2CC2)(OCC2CC2)C(F)(F)F)c(O)nc1C` (stereo not given), the IC50 [1] is reported as 188 nM and the IC90 [2] is reported as 37 nM.
`CCCOC(C#CC1CC1)(c1cc(CC)c(C)nc1O)C(F)(F)F` (stereo not given) gave an IC50 [1] of 105 nM and an IC90 [2] of 32 nM.
For `CCc1cc(C(C#CC2CC2)(OC)C(F)(F)F)c(O)nc1C` (stereo not given), the IC50 [1] was 770 nM and the IC90 [2] was 201 nM.
`Oc1ncccc1C(C#CC1CC1)(OCc1ccccc1)C(F)(F)F` (stereo not given) was tested, and the IC50 [1] was 11800 nM and the IC90 [2] was 182 nM.
With `CCc1cc(C(C#CC2CC2)(OCc2c(F)cccc2OC)C(F)(F)F)c(O)nc1C` (stereo not given) the IC50 [1] was 1950 nM and the IC90 [2] was 160 nM.
`CCc1cc(C(C#CC2CC2)(OCC#N)C(F)(F)F)c(O)nc1C` (stereo not given) gave an IC50 [1] of 1840 nM and an IC90 [2] of 1400 nM.
With `Oc1ncccc1C(C#CC1CC1)(OCc1ccncc1)C(F)(F)F` (stereo not given) the IC50 [1] was 8110 nM and the IC90 [2] was 431 nM.
With `Oc1ncccc1C(/C=C/c1ccccc1)(OCc1ccccc1)C(F)(F)F` (stereo not given) the IC50 [1] was 43900 nM and the IC90 [2] was greater than 1300 nM.
Compound `CCc1cc(C(C#CC2CC2)(OCc2c(Cl)cccc2Cl)C(F)(F)F)c(O)nc1C` (stereo not given) has an IC50 [1] of 41100 nM and an IC90 [2] of 157 nM.
Work on `Oc1ncccc1C(C#CC1CC1)(Oc1cccc(Oc2ccccc2)c1)C(F)(F)F` (stereo not given) yielded an IC50 [1] of 24300 nM and an IC90 [2] greater than 1140 nM.
Compound `O=C1Nc2ccc(Cl)cc2[C@@](/C=C/C2CC2)(C(F)(F)F)N1` has an IC90 [4] of 90 nM and an IC90 [6] of 140 nM.
`CCc1cc(C(C#CC2CC2)(OCc2ccccc2)C(F)(F)F)c(=O)[nH]c1C` (stereo not given) showed an IC50 [1] of 1350 nM.
In the case of `CCOC(C#CC1CC1)(c1cc(CC)c(C)nc1O)C(F)(F)F` (stereo not given), the IC50 [1] is reported as 183 nM and the IC90 [2] is reported as 95 nM.
Compound `Oc1ncccc1C(/C=C/C1CC1)(OCc1ccccc1)C(F)(F)F` (stereo not given) has an IC50 [1] of 16700 nM and an IC90 [2] greater than 1400 nM.
For `CCc1cc(C(C#CC2CC2)(OCc2ccccc2)C(F)(F)F)c(O)nc1C` (stereo not given), the IC90 [3] was 113 nM, the IC90 [7] was 668 nM and the IC90 [4] was 1210 nM. For the same compound, the IC90 [5] was 46 nM and the IC90 [6] was 283 nM.
For `CCc1cc(NCc2nc3c(Cl)ccc(Cl)c3o2)c(O)nc1C` [L-697661], the IC90 [2] was 50 nM.
With `Oc1ncccc1C(C#CC1CC1)(OCc1ccccn1)C(F)(F)F` (stereo not given) the IC50 [1] was 26000 nM and the IC90 [2] was 1010 nM.
